Measurements as given in paper PMC8156508, “Ileo-Colon Targeting of the Poorly Water-Soluble Drug Celecoxib Using a pH-Dependent Coating in Combination with Self-Emulsifying Drug Delivery or Solid Dispersion Systems” (Pharmaceutics, 2021).
Blank lines part the entries; values can stand above or below the compound they belong to.

Key:
[1] = set-up: method as in PMID 26401428; details: cited from earlier work
[2] = set-up: method as in PMID 26146768; details: cited from earlier work
[3] = pH 7; cited from earlier work
[4] = Saturation concentration of CXB in oily phases, surfactants and co-surfactants/co-solvents; type: physicochemical; details: 30 °C
Method: To assess the saturation concentration of CXB in different oily phases (Capryol 90, Captex 200 P, Captex 355 EP/NF, isopropyl myristate, Maisine CC, and Peceol), surfactants (Cremophor RH40, Labrasol, Tween 20, and Tween 80), and co-surfactants/co-solvents (Capmul PG-8 NF, PEG 400, Plurol oleique CC 497, and tetraglycol), an excess amount of CXB was added to the liquid excipients and placed in a tube rotator at 20 rpm and 30 °C for a day. After that, samples were centrifuged at 14,000 rpm for 20 min and the supernatant was appropriately diluted in methanol. The drug concentration was determined at 252 nm with a UV-VIS spectrophotometer Unicam UV 500A (Gemini, Apeldoorn, The Netherlands).

[5] = set-up: method as in PMID 14603484; details: rats; cited from earlier work

SMILES: CCCCCCCCCCCCOS(=O)(=O)[O-].[Na+] [SDS, sodium dodecyl sulfate]
critical micelle concentration [1]: 8 mM

SMILES: C[C@]12C=CC(=O)C=C1CC[C@@H]1[C@@H]2[C@@H](O)C[C@@]2(C)[C@H]1CC[C@]2(O)C(=O)CO [prednisolone]
effect of pH-dependent colon targeted film coating on in vitro release profile of solid SMEDDS [2]: not impacted

solubility of CXB in surfactants ([4]; Tween 20, Tween 80, cremophor RH40, Labrasol ALF): comparable CXB solubilities
solubility of CXB in co-surfactants/co-solvents ([4]; in PEG 400 and tetraglycol): highest solubility
solubility of CXB in oily phases ([4]; in capryol 90, among six oily phases): highest amount
SMILES: Cc1ccc(-c2cc(C(F)(F)F)nn2-c2ccc(S(N)(=O)=O)cc2)cc1 [CXB, Celecoxib]
solubility [3]: 3 to 7 µg/mL

SMILES: CC(=O)O[C@H]1C(=O)[C@@]2(C)[C@H]([C@H](OC(=O)c3ccccc3)[C@]3(O)C[C@H](OC(=O)[C@H](O)[C@@H](NC(=O)c4ccccc4)c4ccccc4)C(C)=C1C3(C)C)[C@]1(OC(C)=O)CO[C@@H]1C[C@@H]2O [paclitaxel]
higher bioavailability by HPMC precipitation inhibition in SEDDS [5]: 5 fold
